Measurements: the supplement of paper PMC12137928
Structures can show the parent of a compound that is named as a salt.

Test system: HCT116
Conditions: 72 h
In short: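 Luminescence was read with CellTiter-Glo in HCT116 cells seeded at 250 per well in 1536-well plates. Signals were scaled between vehicle at 0% and positive control at -100%, then pattern-corrected. IC50 and maximal efficacy were obtained by fitting a four-parameter Hill equation.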

| Compound | IC50 cell viability (ICRF193 0 nM) [µM] | IC50 cell viability (ICRF193 200 nM) [µM] |
| --- | --- | --- |
| Nc1nc(/C(=C/CC(=O)O)C(=O)N[C@@H]2C(=O)N3C(C(=O)O)=CCS[C@H]23)cs1 [CEFTIBUTEN] | > 45.8 | > 45.8 |
| Nc1nc(O)c2ncn(CCC(CO)CO)c2n1 [Penciclovir] | > 45.8 | > 45.8 |
| O=C(OCc1ccccc1)c1cccnc1 [BENZYL NICOTINATE] | > 45.8 | > 45.8 |
| CC(=O)O[C@]1(C(C)=O)CC[C@H]2[C@@H]3C[C@H](C)C4=CC(=O)C=C[C@]4(C)[C@@]3(F)[C@@H](O)C[C@@]21C [Fluorometholone Acetate] | > 45.8 | > 45.8 |
| Nc1ccn([C@@H]2CO[C@H](CO)O2)c(=O)n1 [Troxacitabine] | > 45.8 | > 45.8 |
| CN1CCOC(c2ccccc2)c2ccccc2C1 (stereo unspecified) [Nefopam hydrochloride] | > 45.8 | > 45.8 |
| CCCC(=O)O[C@]1(C(=O)CO)CC[C@H]2[C@@H]3CCC4=CC(=O)CC[C@]4(C)[C@H]3[C@@H](O)C[C@@]21C [Hydrocortisone 17-butyrate] | > 45.8 | > 45.8 |
| O=C1c2ccccc2C(=O)c2ccccc21 [Anthraquinone] | > 45.8 | > 45.8 |
| CC[C@H]1OC(=O)[C@H](C)[C@@H](O[C@H]2C[C@@](C)(OC)[C@@H](O)[C@H](C)O2)[C@H](C)[C@@H](O[C@@H]2O[C@H](C)C[C@H](N(C)C)[C@H]2O)[C@](C)(O)C[C@@H](C)/C(=N\OCOCCOC)[C@H](C)[C@@H](O)[C@]1(C)O [Roxithromycin] | > 45.8 | > 45.8 |
| Cc1[nH]cnc1CN1CCc2c(c3ccccc3n2C)C1=O [Alosetron hydrochloride] | > 45.8 | > 45.8 |
| C=CC1=C(C(=O)O)N2C(=O)[C@@H](NC(=O)/C(=N\O)c3csc(N)n3)[C@H]2SC1 [Cefdinir] | > 45.8 | > 45.8 |
| CCN1CCCC1CNC(=O)c1cc(S(=O)(=O)CC)ccc1OC (stereo unspecified) [Sultopride hydrochloride] | > 45.8 | > 45.8 |
| O=C(O)CCC(=O)O [Butanedioic acid] | > 45.8 | > 45.8 |
| COc1ccc(C(=O)NCc2ccc(OCCN(C)C)cc2)cc1OC [Itopride hydrochloride] | > 45.8 | > 45.8 |
| CC(=O)O[C@H]1C[C@@H]2CC[C@@H]3[C@H](CC[C@@]4(C)[C@H]3C[C@H]([N+]3(C)CCCCC3)[C@@H]4OC(C)=O)[C@@]2(C)C[C@@H]1N1CCCCC1 [Vecuronium bromide] | > 45.8 | > 45.8 |
| OC[C@H]1O[C@H](O[C@H]2[C@H](O)[C@@H](O)C(O)O[C@@H]2CO)[C@H](O)[C@@H](O)[C@@H]1O (stereo partly drawn) [D-(+)-MALTOSE] | > 45.8 | > 45.8 |
| CC(=O)N(CC(O)CN(C(C)=O)c1c(I)c(C(=O)NCC(O)CO)c(I)c(C(=O)NCC(O)CO)c1I)c1c(I)c(C(=O)NCC(O)CO)c(I)c(C(=O)NCC(O)CO)c1I (stereo unspecified) [Iodixanol] | > 45.8 | > 45.8 |
| CCN(CC)CCNC(=O)c1cc(S(C)(=O)=O)ccc1OC [Tiapride hydrochloride] | > 45.8 | > 45.8 |
| CC(=O)[C@@]1(O)CC[C@H]2[C@@H]3CCC4=CC(=O)CC[C@@H]4[C@H]3CC[C@@]21C [Gestonorone] | > 45.8 | > 45.8 |
| N#CSCC(=O)O [Thiocyanoacetic acid sodium salt] | > 45.8 | > 45.8 |
| CNCc1cc(-c2ccccc2F)n(S(=O)(=O)c2cccnc2)c1 [TAK 438] | > 45.8 | > 45.8 |
| CN[C@@H]1[C@H](O)[C@H](NC)[C@H]2O[C@@]3(O)C(=O)C[C@@H](C)O[C@H]3O[C@@H]2[C@H]1O [Spectinomycin dihydrochloride] | > 45.8 | > 45.8 |
| CC(C)[C@H](N)C(=O)OCCOCn1cnc2c(=O)nc(N)[nH]c21 [Valaciclovir] | > 45.8 | > 45.8 |
| CSCC[C@H](N)C(=O)O [L-Methionine] | > 45.8 | > 45.8 |
| Nc1nc(=O)c2c([nH]1)NCC(CNc1ccc(C(=O)N[C@@H](CCC(=O)O)C(=O)O)cc1)N2C=O (stereo partly specified) [LEUCOVORIN CALCIUM] | > 45.8 | > 45.8 |
| O=C(Cn1ccnc1[N+](=O)[O-])NCc1ccccc1 [Benznidazole] | > 45.8 | > 45.8 |
| COc1ccc(CN(CCN(C)C)c2ccccn2)cc1 [Pyrilamine] | > 45.8 | > 45.8 |
| C=C1/C(=C\C=C2/CCC[C@]3(C)[C@@H]([C@H](C)CCCC(C)(C)O)CC[C@@H]23)C[C@@H](O)C[C@@H]1O [Calcitriol] | > 45.8 | > 45.8 |
